Experimental data published in patent publication US10703756B2, “Pyrrolo[2,3-D]pyrimidinyl, pyrrolo[2,3-B]pyrazinyl, pyrrolo[2,3-B]pyridinyl acrylamides and epoxides thereof” (Pfizer Inc., priority 2015, dated 2020).
pIC50: −log10 of the molar value.

Legend:
JAK3 enzyme [1] = target: T1, JAK3 enzyme (Homo sapiens, UniProt P52333); experiment: JAK Caliper Enzyme Assay at 4 μM ATP; assay type: biochemical
T1 sequence (P52333 1-1124): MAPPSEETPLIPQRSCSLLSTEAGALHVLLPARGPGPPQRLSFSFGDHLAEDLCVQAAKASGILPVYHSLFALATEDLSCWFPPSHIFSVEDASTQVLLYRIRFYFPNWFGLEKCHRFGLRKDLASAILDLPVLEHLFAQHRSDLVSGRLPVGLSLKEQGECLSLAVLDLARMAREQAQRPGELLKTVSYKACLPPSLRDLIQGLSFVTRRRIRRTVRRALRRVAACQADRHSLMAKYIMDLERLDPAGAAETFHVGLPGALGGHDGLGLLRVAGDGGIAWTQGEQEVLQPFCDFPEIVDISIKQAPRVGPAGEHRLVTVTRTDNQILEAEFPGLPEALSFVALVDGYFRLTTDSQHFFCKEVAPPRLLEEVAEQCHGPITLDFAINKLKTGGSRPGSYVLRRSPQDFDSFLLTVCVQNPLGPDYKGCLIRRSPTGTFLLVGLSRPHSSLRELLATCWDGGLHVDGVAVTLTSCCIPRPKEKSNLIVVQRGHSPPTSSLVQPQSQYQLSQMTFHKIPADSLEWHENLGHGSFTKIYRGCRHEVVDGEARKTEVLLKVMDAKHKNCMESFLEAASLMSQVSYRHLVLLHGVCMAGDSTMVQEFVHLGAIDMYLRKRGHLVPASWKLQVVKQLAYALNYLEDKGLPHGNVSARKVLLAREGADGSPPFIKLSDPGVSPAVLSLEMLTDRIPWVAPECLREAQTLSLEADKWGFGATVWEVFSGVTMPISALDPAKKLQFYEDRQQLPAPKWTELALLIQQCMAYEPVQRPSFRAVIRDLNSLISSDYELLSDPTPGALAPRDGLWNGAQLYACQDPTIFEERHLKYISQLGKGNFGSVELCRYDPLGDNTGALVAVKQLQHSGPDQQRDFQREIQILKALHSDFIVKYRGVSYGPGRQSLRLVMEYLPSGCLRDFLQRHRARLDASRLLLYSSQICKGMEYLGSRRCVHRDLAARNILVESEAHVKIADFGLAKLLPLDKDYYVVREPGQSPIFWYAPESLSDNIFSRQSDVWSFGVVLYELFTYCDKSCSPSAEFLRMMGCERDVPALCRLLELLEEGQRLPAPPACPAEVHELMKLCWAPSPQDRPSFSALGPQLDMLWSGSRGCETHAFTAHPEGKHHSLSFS
Summary of the method: (§1)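 Test compounds were diluted in DMSO as an 11-point half-log series from a 600 μM top concentration (DMSO series, not final assay level). Enzyme amount and incubation time were set per enzyme prep to reach 20%-30% phosphorylation. Phosphorylated and unphosphorylated peptide were resolved by microfluidic separation.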

JAK3 enzyme [2] = target: T1, JAK3 enzyme; experiment: JAK Caliper Enzyme Assay at 1 mM ATP; assay type: biochemical
Summary of the method: as §1

[3] = Stability of JAK3 Covalent Inhibitors in Human Whole Blood; assay type: in vitro ADME; conditions: both sexes, 1 μM test compound, 37° C., 180 min incubation, read-out: Human blood stability t1/2
Summary of the method: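 Compound at 1 μM final incubated in duplicate at 37° C for 180 min in fresh K2-EDTA whole blood […]. Samples quenched in acetonitrile with internal standard; LC-MS/MS peak area ratios gave % parent remaining over time.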

[4] = system: IL-15 induced STAT5 phosphorylation in human whole blood lymphocytes; experiment: HWB IL-15 Induced STAT5 Phosphorylation Assay; assay type: cell-based; conditions: Lymphocyte, IL-15 final 50 ng/ml, read-out: HWB_IL15 pSTAT5 IC50
Summary of the method: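 Heparinised human whole blood preincubated with compound (0.2% DMSO final) 45 min at 37° C, then stimulated with human IL-15 (50 ng/ml final) for 15 min. After lyse/fix and Perm Buffer III permeabilisation, stained overnight at 4° C with AlexaFluor647 anti-phospho-STAT5; read by flow cytometry gated on total lymphocytes.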

Structure (SMILES) | pIC50 (JAK3 enzyme [1]) | pIC50 (JAK3 enzyme [2]) | half-life at 1 μM [3] [h] | pIC50 [4]
C=CC(=O)N1C[C@H](CN2CC[C@H](C#N)C2)C[C@H](Nc2ncnc3[nH]ccc23)C1 [Example 108, (S)-1-(((3S,5S)-5-((7H-pyrrolo[2,3-d]pyrimidin-4-yl)amino)-1-acryloylpiperidin-3-yl)methyl)pyrrolidine-3-carbonitrile] | 9.11 | 6.87 | 2.23 | 5.46
C=CC(=O)N1CCN(c2cnc3[nH]cc(C(=O)N[C@H]4CCO[C@H]4C)c3n2)CC1(C)C [Example 166, 3-({[2-(4-acryloyl-3,3-dimethylpiperazin-1-yl)-5H-pyrrolo[2,3-b]pyrazin-7-yl]carbonyl}amino)-2,5-anhydro-1,3,4-trideoxy-L-threo-pentitol] | 9.18 | 7.24 | > 6 | 5.92
C=CC(=O)N1CCC(Nc2cnc3[nH]cc(C(=O)NCC4CC4)c3n2)CC1 [Example 172, 2-[(1-acryloylpiperidin-4-yl)amino]-N-(cyclopropylmethyl)-5H-pyrrolo[2,3-b]pyrazine-7-carboxamide] | 9.35 | 8.30 | 5.43 | 6.49
C=CC(=O)N1CCC(Nc2cnc3[nH]cc(C(=O)NCc4cccc(F)c4)c3n2)CC1 [Example 176, 2-[(1-acryloylpiperidin-4-yl)amino]-N-(3-fluorobenzyl)-5H-pyrrolo[2,3-b]pyrazine-7-carboxamide] | 9.36 | 8.52 | 4.85 | 6.50
C=CC(=O)N1CCC(Nc2cnc3[nH]cc(C(=O)NCCC4CC4)c3n2)CC1 [Example 178, 2-[(1-acryloylpiperidin-4-yl)amino]-N-(2-cyclopropylethyl)-5H-pyrrolo[2,3-b]pyrazine-7-carboxamide] | 9.35 | 8.22 | 5.57 | 6.44
C=CC(=O)N1CCC(Nc2cnc3[nH]cc(C(=O)NCc4ccccc4)c3n2)CC1 [Example 187, 2-[(1-acryloylpiperidin-4-yl)amino]-N-benzyl-5H-pyrrolo[2,3-b]pyrazine-7-carboxamide] | 9.30 | 8.22 | > 6 | 6.62
C=CC(=O)N1CCC(Nc2cnc3[nH]cc(C(=O)NCc4ccc(F)cc4)c3n2)CC1 [Example 188, 2-[(1-acryloylpiperidin-4-yl)amino]-N-(4-fluorobenzyl)-5H-pyrrolo[2,3-b]pyrazine-7-carboxamide] | 9.29 | 8.22 | > 6 | 6.04
C=CC(=O)N1CCC(Nc2cnc3[nH]cc(C(=O)NCc4ccc(F)c(C#N)c4)c3n2)CC1 [Example 189, 2-[(1-acryloylpiperidin-4-yl)amino]-N-(3-cyano-4-fluorobenzyl)-5H-pyrrolo[2,3-b]pyrazine-7-carboxamide] | 9.16 | 8.22 | > 6 | 5.94
C=CC(=O)N1CCC(Nc2cnc3[nH]cc(C(=O)NCc4ccccc4F)c3n2)CC1 [Example 196, 2-[(1-acryloylpiperidin-4-yl)amino]-N-(2-fluorobenzyl)-5H-pyrrolo[2,3-b]pyrazine-7-carboxamide] | 9.32 | 8.30 | > 6 | 6.44
C=CC(=O)N1CCC(Oc2cnc3[nH]cc(C(=O)NC45CC(C4)C5)c3n2)CC1 [Example 200, 2-[(1-acryloylpiperidin-4-yl)oxy]-N-(bicyclo[1.1.1]pent-1-yl)-5H-pyrrolo[2,3-b]pyrazine-7-carboxamide] | 9.39 | 7.34 | > 6 | 5.82
C=CC(=O)N1CCC(Oc2cnc3[nH]cc(C(=O)N[C@@H](C)CC)c3n2)CC1 [Example 205, 2-[(1-acryloylpiperidin-4-yl)oxy]-N-[(2S)-butan-2-yl]-5H-pyrrolo[2,3-b]pyrazine-7-carboxamide] | 9.86 | 7.80 | 4.17 | 6.29
C=CC(=O)N1CCC(Oc2cnc3[nH]cc(C(=O)NC(C)(C)CC)c3n2)CC1 [Example 209, 2-[(1-acryloylpiperidin-4-yl)oxy]-N-(2-methylbutan-2-yl)-5H-pyrrolo[2,3-b]pyrazine-7-carboxamide] | 9.22 | 7.19 | 4.45 | < 5.00
C=CC(=O)N1CCC(Oc2cnc3[nH]cc(C(=O)N[C@H](C)COC)c3n2)CC1 [Example 214, 2-[(1-acryloylpiperidin-4-yl)oxy]-N-[(2R)-1-methoxypropan-2-yl]-5H-pyrrolo[2,3-b]pyrazine-7-carboxamide] | 9.68 | 7.70 | 4.79 | 6.71
C=CC(=O)N1CCC(Oc2cnc3[nH]cc(C(=O)NC4CCCC4(F)F)c3n2)CC1 (stereo not drawn) [Example 219, 2-[(1-acryloylpiperidin-4-yl)oxy]-N-(2,2-difluorocyclopentyl)-5H-pyrrolo[2,3-b)pyrazine-7-carboxamide] | 9.44 | 7.60 | 4.05 | 6.05
C=CC(=O)N1CCC(Oc2cnc3[nH]cc(C(=O)N[C@H]4CC[C@@H](F)C4)c3n2)CC1 [Example 225, 2-[(1-acryloylpiperidin-4-yl)oxy]-N-[(1S,3R)-3-fluorocyclopentyl]-5H-pyrrolo[2,3-b]pyrazine-7-carboxamide] | 9.63 | 7.60 | 3.93 | 6.11
C=CC(=O)N1CCC(Oc2cnc3[nH]cc(C(=O)N[C@H](C)CC)c3n2)CC1 [Example 227, 2-[(1-acryloylpiperidin-4-yl)oxy]-N-[(2R)-butan-2-yl]-5H-pyrrolo[2,3-b]pyrazine-7-carboxamide] | 9.55 | 7.66 | 4.5 | 6.17
C=CC(=O)N1CCC(Oc2cnc3[nH]cc(C(=O)N[C@@H](C)COC)c3n2)CC1 [Example 228, 2-[(1-acryloylpiperidin-4-yl)oxy]-N-[(2S)-1-methoxypropan-2-yl]-5H-pyrrolo[2,3-b]pyrazine-7-carboxamide] | 9.64 | 7.74 | 4.23 | 6.42
C=CC(=O)N1CCC(Oc2cnc3[nH]cc(C(=O)N[C@@H]4CCC[C@H]4F)c3n2)CC1 [Example 229, 2-[(1-acryloylpiperidin-4-yl)oxy]-N-[(1R,2R)-2-fluorocyclopentyl]-5H-pyrrolo[2,3-b]pyrazine-7-carboxamide] | 9.24 | 7.22 | 5.93 | 5.62
C=CC(=O)N1CCC(Oc2cnc3[nH]cc(C(=O)N[C@@H]4CCC[C@@H]4F)c3n2)CC1 [Example 230, 2-[(1-acryloylpiperidin-4-yl)oxy]-N-[(1R,2S)-2-fluorocyclopentyl]-5H-pyrrolo[2,3-b]pyrazine-7-carboxamide] | 9.52 | 7.47 | 5.85 | 5.77
C=CC(=O)N1CC[C@H](Nc2cnc3[nH]cc(C(=O)NCC4CCCC4)c3n2)[C@H](OC)C1 [Example 284, 2-{[(3R,4S)-1-acryloyl-3-methoxypiperidin-4-yl]amino}-N-(cyclopentylmethyl)-5H-pyrrolo[2,3-b]pyrazine-7-carboxamide] | 9.52 | 7.38 | > 6 | 6.09
C=CC(=O)N1CCN(c2cnc3[nH]cc(C(=O)NCC(C)C)c3n2)C[C@@H]1CC(C)C [Example 288, 2-[(3S)-4-acryloyl-3-(2-methylpropyl)piperazin-1-yl]-N-(2-methylpropyl)-5H-pyrrolo[2,3-b]pyrazine-7-carboxamide] | 9.42 | 7.24 | > 6 | 5.67
